# Values of other authors in patent US10357461B2, “Physically dispersed, molecularly dissolved and/or chemically bound drug(s) in an empty, hard capsule shell composition” (priority 2005, dated 2019).
# Key:
# [1] = people taking metformin
structure (smiles),measurement,setting,value
COc1cc2c(c(OC)c1OC)-c1ccc(OC)c(=O)cc1[C@@H](NC(C)=O)CC2 [Colchicine],solubility in water,water,7000 µg/mL
C[C@]12CCC(=O)C=C1[C@@H]1C[C@@H]1[C@H]1[C@@H]3[C@@H]4C[C@@H]4[C@@]4(CCC(=O)O4)[C@@]3(C)CC[C@@H]12 [Drospirenone],water solubility,water at 25° C.,1.8 µg/mL
CN(C)C(=N)N=C(N)N [metformin],people taking the drug who face vitamin B12 deficiency,[1],~30%
